# Laboratory results published in patent publication US10052310B2, “Separase inhibitors and uses thereof” (Baylor College of Medicine, priority 2013, dated 2018).
# “Also recorded” adds a separate entry of the source. Like-named read-outs stand apart in the source and are kept apart here.
# What was measured:
# Separase = biological target: T1, Separase (Homo sapiens, UniProt Q14674); test: Fluorogenic Separase activity assay using (Rad21)2-Rh110 as substrate; type: biochemical; settings: for IC50: (Rad21)2-Rh110 substrate
# T1 construct: made in house; host or cells: 293T cells; released from IgG-Agarose by TEV protease
# T1 sequence (Q14674 whole entry): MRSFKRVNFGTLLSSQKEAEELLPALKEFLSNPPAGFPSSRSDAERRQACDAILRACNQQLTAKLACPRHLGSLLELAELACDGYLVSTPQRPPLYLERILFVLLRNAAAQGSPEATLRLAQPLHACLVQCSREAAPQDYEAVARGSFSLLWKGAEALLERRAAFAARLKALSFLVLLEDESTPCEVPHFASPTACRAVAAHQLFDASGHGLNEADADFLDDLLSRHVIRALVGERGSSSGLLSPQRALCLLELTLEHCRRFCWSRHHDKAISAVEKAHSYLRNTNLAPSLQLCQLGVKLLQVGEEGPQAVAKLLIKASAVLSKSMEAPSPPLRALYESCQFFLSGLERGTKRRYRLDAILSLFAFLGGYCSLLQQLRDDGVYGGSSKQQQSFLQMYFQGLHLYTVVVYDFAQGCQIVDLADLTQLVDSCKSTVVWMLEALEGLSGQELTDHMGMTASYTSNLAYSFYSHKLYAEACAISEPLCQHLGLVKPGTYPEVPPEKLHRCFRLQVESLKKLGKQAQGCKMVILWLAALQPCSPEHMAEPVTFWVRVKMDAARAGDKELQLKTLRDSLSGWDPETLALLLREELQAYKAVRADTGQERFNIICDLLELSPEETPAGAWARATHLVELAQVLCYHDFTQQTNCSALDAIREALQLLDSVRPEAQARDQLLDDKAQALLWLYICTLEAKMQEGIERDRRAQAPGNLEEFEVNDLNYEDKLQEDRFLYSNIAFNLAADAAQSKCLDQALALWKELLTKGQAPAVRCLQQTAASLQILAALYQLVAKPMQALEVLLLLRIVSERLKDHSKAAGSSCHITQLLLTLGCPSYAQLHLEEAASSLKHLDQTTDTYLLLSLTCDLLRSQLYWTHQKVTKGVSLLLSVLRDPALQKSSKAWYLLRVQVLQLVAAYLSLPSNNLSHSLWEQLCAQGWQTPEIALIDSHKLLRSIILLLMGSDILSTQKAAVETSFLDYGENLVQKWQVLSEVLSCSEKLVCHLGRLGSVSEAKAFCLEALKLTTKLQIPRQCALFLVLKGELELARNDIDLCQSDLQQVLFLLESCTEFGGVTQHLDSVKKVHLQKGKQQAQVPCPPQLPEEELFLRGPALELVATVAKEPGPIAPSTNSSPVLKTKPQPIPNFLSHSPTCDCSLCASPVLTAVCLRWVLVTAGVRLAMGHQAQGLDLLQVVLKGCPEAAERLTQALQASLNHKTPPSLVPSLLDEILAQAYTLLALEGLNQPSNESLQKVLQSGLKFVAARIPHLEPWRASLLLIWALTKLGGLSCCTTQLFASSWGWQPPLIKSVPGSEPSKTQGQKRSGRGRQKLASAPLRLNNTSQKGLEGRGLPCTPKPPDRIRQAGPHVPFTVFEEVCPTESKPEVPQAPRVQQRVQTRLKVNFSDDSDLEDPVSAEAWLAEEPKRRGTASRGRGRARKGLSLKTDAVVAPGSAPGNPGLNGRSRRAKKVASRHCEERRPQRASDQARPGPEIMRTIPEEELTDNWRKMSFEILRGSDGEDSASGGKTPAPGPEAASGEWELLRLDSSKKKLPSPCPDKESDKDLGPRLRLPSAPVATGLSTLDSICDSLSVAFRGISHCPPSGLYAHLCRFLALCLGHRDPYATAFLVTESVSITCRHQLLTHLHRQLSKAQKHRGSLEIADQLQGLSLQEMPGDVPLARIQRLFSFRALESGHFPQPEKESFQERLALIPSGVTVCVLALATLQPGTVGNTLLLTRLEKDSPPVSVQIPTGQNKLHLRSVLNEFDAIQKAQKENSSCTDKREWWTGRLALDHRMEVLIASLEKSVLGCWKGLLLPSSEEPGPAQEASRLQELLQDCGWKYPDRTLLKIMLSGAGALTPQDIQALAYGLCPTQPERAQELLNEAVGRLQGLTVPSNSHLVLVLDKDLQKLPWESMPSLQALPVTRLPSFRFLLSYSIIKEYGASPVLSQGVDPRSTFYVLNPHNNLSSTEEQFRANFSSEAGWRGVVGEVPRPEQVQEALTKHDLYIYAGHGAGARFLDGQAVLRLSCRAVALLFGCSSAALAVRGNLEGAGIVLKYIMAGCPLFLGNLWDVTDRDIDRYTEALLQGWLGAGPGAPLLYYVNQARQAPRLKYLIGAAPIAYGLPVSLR
# Experimental: The substrate used in this Example is (Rad21)2-Rh110, which has two Rad21 peptide molecules (Asp-Arg-Glu-Ile-Nle-Arg) conjugated to one molecule of Rhodamine 110 (Rh110) (CPC Scientific, Sunnyvale Calif.). The assay was set up using 384-well low volume black polystyrene plates (Corning, N.Y.). Fifteen micro liter of activated Separase (˜5 ng) was mixed with 5 μl of test compound. The cleavage buffer (CB) used to dilute reagents was (30 mM Hepes-KOH pH7.7, 50 mM NaCl, 25 mM NaF, 25 mM KCl, 5 mM MgCl2, 1.5 mM ATP, and 1 mM EGTA). The mixture was incubated at room temperature for 1 h, and then 5 μl of 0.2 mM substrate (Rad21)2-Rh110 was added. The positive control contained Separase, substrate and CB without the test compound. The negative control contained substrate and CB only. After the reaction mixture was incubated at 37° C. for 3 h, the relative fluorescence intensity was measured (without stopping the enzymatic activity) at λex=390 nm/λem=450 nm for […] (AMC) released from Rad21-MCA or λex=490 nm/λem=528 nm for Rh110 released from (Rad21)2-Rh110 using a Synergy™ 4 Multi-Mode Microplate Reader (BioTek Instruments Inc., Winooski, Vt.).
# Different amounts of Sepin-1 were mixed with activated Separase for 30 min before substrate (Rad21)2-Rh110 was added. After 3 h incubation at 37° C., the fluorescence intensity of Rh110 was determined. IC50 was calculated using either KaleidaGraph program (Synerge software, Reading, Pa.) or four parameter logistic equation (4-parameter dose-response curve fit): Inhibition of Activity (%)=min+(max−min)/{1+(log [M]/IC50)}^Hill Slop, where “min” and “max” represent minimal and maximal activity inhibition, respectively. Hill Slop is the slope of the curve at its midpoint. To identify the mode of Sepin-1 interacting with Separase, different amounts of both Sepin-1 and (Rad21)2-Rh110 were used in the Separase activity assay.
# CHLA-02-ATRT = test: MTT in vitro cytotoxicity assay; type: cell-based; settings: Homo sapiens, Brain, 72 h, read-out: IC50 growth inhibition
# Experimental: (§1) The inhibitory effect of Sepin-1 on cell growth was assayed using the 3-(4,5-dimethylthiazol-2yl)-2,5-diphenyl-tetrazolium bromide (MTT) colorimetric dye reduction method (Cancer Chemother. Pharmacol., 2006, 58, 13-23). One hundred thirty-five μl of exponentially growing cancer cells were plated at a density of 0.4-1.0×10^5 cells/well in a 96-well microtiter plate. After 16 h, Sepin-1 at specified concentrations was added to each well. After 72 h of continuous drug exposure, 15 μl of 5 mg/ml MTT was added to each well and the plates were incubated for 4 h at 37° C. Medium was replaced with 150 μl of DMSO to solubilize the formazan, and the optical density (OD) was measured at 550 nm using a microplate spectrophotometer (Anthos Analytical, Durham, N.C., USA). Cell viability was calculated by subtracting the background OD of media alone from the OD of test wells, then dividing by the OD of the control (untreated) wells. Replicates of 3 wells were used for each drug concentration. The in vitro cytotoxicity assay was repeated once and the IC50 reported was the average of two independent experiments.
# CHP212 = test: MTT in vitro cytotoxicity assay; type: cell-based; settings: Homo sapiens, CHP-212, CHP212, Neuroblastoma, 72 h, read-out: IC50 growth inhibition
# Experimental: as §1
# HBL100 = test: MTT in vitro cytotoxicity assay; type: cell-based; settings: Homo sapiens, HBL-100, HBL100, Breast, 72 h, read-out: IC50 growth inhibition
# Experimental: as §1
# KCNR = test: MTT in vitro cytotoxicity assay; type: cell-based; settings: Homo sapiens, Neuroblastoma, 72 h, read-out: IC50 growth inhibition
# Experimental: as §1
# LAN-5 = test: MTT in vitro cytotoxicity assay; type: cell-based; settings: Homo sapiens, LA-N-5, LAN-5, Neuroblastoma, 72 h, read-out: IC50 growth inhibition
# Experimental: as §1
# MCF10F = test: MTT in vitro cytotoxicity assay; type: cell-based; settings: Homo sapiens, MCF-10F, Breast, 72 h, read-out: IC50 growth inhibition
# Experimental: as §1
# MDA436 = test: MTT in vitro cytotoxicity assay; type: cell-based; settings: Homo sapiens, MDA436, Breast, 72 h, read-out: IC50 growth inhibition
# Experimental: as §1
# MDAMB231 = test: MTT in vitro cytotoxicity assay; type: cell-based; settings: Homo sapiens, MDA-MB-231, MDAMB231, Breast, 72 h, read-out: IC50 growth inhibition
# Experimental: as §1
# Molt4 = test: MTT in vitro cytotoxicity assay; type: cell-based; settings: Homo sapiens, MOLT-4, Molt4, Leukemia, 72 h, read-out: IC50 growth inhibition
# Experimental: as §1
# NGP = test: MTT in vitro cytotoxicity assay; type: cell-based; settings: Homo sapiens, Neuroblastoma, 72 h, read-out: IC50 growth inhibition
# Experimental: as §1
# SK-N-BE(2) = test: MTT in vitro cytotoxicity assay; type: cell-based; settings: Homo sapiens, SKNBE2, Neuroblastoma, 72 h, read-out: IC50 growth inhibition
# Experimental: as §1
# SY5Y = test: MTT in vitro cytotoxicity assay; type: cell-based; settings: Homo sapiens, Neuroblastoma, 72 h, read-out: IC50 growth inhibition
# Experimental: as §1
# C57B6 mice = test: Toxicity of Sepin-1 in mice, single intravenous dose; type: in vivo
# Experimental: To investigate the toxicity in mice, Applicants injected Sepin-1 at a single dose in the range of 50-100 mg/kg body weight into C57B6 mice via tail vein.
# Based on the above results, Applicants expanded this study to identify the Severely Toxic Dose (i.e., dose that causes death or irreversible severe toxicity, in 10% of rodents, STD10) using more mice injected at 75 to 90 mg/Kg range. A dose of 80 mg/Kg was estimated as STD10 for Sepin-1 in these mice.
# To test Maximum Tolerated Dose (MTD) and No Observable Effect Level (NOEL) of Sepin-1, Applicants applied 200 μl Sepin-1 (diluted in PBS) one time at an acute dose range of 50 to 100 mg/kg body weight to 8-10 weeks old C57B6 mice (˜25 g) through intravenous tail vein injection (n=3/group). Except for the MTD dose, after Sepin-1 injection, the mice were returned to the cage and their reaction to the drug was monitored from one week to several months. Complete necropsy, blood chemistry and pathology of the Sepin-1 injected mice were carried out by the Comparative Pathology Laboratory at the Baylor College of Medicine.
# [1] = <80 mg/kg single dose via tail vein
compound,measurement,setting,value
"CC1(C)[N+]([O-])=c2ccc([N+](=O)[O-])cc2=[N+]1[O-] [Sepin-1, 2,2-dimethyl-5-nitro-2H-benzimidazole-1,3 dioxide]",effect of 0.1% Tween-20 or 1% BSA on inhibition kinetics,Separase; 0.1% Tween-20 or 1% BSA in the reaction mixture,did not affect the kinetics of Sepin-1 in inhibiting Separase activity
same,IC50,"Separase; calculated using KaleidaGraph, read-out: IC50 of Separase activity inhibition",14.8 µM
same,IC50,"Separase; four-parameter fit, n=3, read-out: estimated IC50, four-parameter dose-response curve fit",15.8 µM
same,dose dependence of Separase activity inhibition,Separase; FIG. 9B,dose-dependent inhibition of Separase activity
same,mode of inhibition (effect on Km and Vmax),"Separase; Lineweaver-Burk plot, Sepin-1 mixed with Separase 30 min before substrate","did not affect the Km but reduced the Vmax; also recorded: reduced the speed (Vmax) of substrate conversion by Separase, but not the Km"
same,verified activity in inhibiting Separase enzymatic activity,Separase; re-test of HTS hits,highest activity
same,IC50,CHLA-02-ATRT,7.6 µM
same,IC50,CHP212,9 µM
same,IC50,HBL100,11.5 µM
same,IC50,KCNR,4.9 µM
same,IC50,LAN-5,5 µM
same,IC50,MCF10F,48.4 µM
same,IC50,MDA436,17.8 µM
same,IC50,MDAMB231,21.5 µM
same,IC50,Molt4,3.2 µM
same,IC50,NGP,7.8 µM
same,IC50,SK-N-BE(2),8.6 µM
same,IC50,SY5Y,4.9 µM
same,time to death after injection,C57B6 mice; 90 mg/kg single dose via tail vein,30 to 90 min
same,effect of dose <80 mg/kg,C57B6 mice; [1],no apparent effect
same,survival after injection,C57B6 mice; [1],over 6 months
same,Severely Toxic Dose in 10% of rodents (STD10),C57B6 mice; mice injected at 75 to 90 mg/Kg range,80 mg/kg
same,histopathology of major organs,"C57B6 mice; mouse, in vivo",no significant lesions in major organs
